This is an account of results in article PMC9705739, “Canagliflozin, characterized as a HDAC6 inhibitor, inhibits gastric cancer metastasis” (Frontiers in Oncology, 2022).

The target in the test is T1, HDAC6 (Homo sapiens, UniProt Q9UBN7).
T1 sequence (Q9UBN7 1-1215): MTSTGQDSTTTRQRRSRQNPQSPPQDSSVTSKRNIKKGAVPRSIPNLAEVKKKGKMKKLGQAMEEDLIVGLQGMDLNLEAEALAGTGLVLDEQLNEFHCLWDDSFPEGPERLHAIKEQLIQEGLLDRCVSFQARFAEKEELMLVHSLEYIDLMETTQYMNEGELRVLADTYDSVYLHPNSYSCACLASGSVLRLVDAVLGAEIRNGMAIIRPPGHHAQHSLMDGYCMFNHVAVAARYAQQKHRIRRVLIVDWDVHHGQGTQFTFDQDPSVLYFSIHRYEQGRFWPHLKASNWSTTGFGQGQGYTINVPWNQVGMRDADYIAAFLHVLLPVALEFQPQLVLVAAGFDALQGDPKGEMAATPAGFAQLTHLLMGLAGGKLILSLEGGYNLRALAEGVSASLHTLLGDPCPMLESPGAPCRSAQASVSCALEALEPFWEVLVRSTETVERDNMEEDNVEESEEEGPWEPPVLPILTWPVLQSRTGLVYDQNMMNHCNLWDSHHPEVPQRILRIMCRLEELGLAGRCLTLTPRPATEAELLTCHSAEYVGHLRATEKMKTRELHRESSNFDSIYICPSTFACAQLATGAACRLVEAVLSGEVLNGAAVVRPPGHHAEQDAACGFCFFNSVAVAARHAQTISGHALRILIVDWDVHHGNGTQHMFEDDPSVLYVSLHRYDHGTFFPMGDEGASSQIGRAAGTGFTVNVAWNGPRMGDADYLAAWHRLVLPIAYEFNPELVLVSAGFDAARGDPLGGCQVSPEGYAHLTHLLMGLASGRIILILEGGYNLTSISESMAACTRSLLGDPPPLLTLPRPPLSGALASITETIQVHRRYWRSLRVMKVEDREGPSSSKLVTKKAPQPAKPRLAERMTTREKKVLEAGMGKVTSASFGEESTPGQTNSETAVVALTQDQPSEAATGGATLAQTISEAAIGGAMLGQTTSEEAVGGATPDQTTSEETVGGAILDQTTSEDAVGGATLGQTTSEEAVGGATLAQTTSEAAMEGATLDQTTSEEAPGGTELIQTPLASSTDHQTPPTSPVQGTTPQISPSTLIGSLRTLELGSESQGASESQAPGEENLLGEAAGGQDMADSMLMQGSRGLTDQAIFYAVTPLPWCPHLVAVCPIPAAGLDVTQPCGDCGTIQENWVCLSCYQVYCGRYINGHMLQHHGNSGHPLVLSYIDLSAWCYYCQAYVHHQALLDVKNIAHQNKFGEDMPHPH
As to the kind of experiment: SPR (Biacore T200, immobilized HDAC6); also enzymatic inhibition IC50 […] and CETSA in MGC-803 cells. The format is binding.

SMILES strings stand for the structures.

As usually defined, the Kd is the free concentration of one partner at which half of the binding sites on the other are occupied at equilibrium, for simple one-to-one binding. A higher Kd goes with weaker binding. Compound `Cc1ccc([C@@H]2O[C@H](CO)[C@@H](O)[C@H](O)[C@H]2O)cc1Cc1ccc(-c2ccc(F)cc2)s1` [canagliflozin] gave a dissociation constant (Kd) of 859 nM.
